85 molecules from a melting point compilation (Tetko et al.; mined from patent text by program, amines drawn as free bases though some values may be those of a salt) can be followed below.

`FC(F)(F)COc1cc(-c2cc(C(F)(F)F)n3cnc(-c4ccncc4)c3n2)ccc1C(F)(F)F`: the melting point is 233 °C. `COc1ncccc1-c1ccc(OC2SCC(O)C(O)C2O)c(Cl)n1` (stereo not given) displayed a melting point of 102 °C. As to `CCOc1nc2c(cnn2CC)nc1C(=O)Cl`, the melting point was 86 to 87 °C. On to `CC(=O)NC1CCN(Cc2cnc3cc(NC(=O)c4ccc(-c5ccc(F)cc5)cc4)ccc3c2)C1` (stereo not given), for which the melting point lay in the range of 250 to 253 °C. The molecule `CSc1nc2cnc3ccccc3c2s1` returned a melting point of 116 to 119 °C. Consider `NC(=O)[C@@H]1[C@H](Nc2c(Br)cnc3[nH]c(-c4cncnc4)nc23)[C@H]2C=C[C@@H]1C2`, for which the melting point is more than 300 °C. For the molecule `CCCCCCCCCCNC(=O)c1cc(C(=O)NCCCCCCCCCC)cc(N(CC(=O)O)CC(=O)O)c1`, the melting point lay within 164 to 167 °C. `CC(=O)Oc1ccc(-c2cc(=O)c3cc(Br)cc([N+](=O)[O-])c3o2)cc1F` returned a melting point of 236 to 238 °C. In turn, `CCOc1ccccc1[C@H]1O[C@H](CC(=O)O)C(=O)N(CC(C)C)c2ccc(Cl)cc21` (relative stereo) had a melting point of 190 to 192 °C.

In the case of `CCOC(=O)c1cnc2c(NC(=O)c3c(Cl)cccc3Cl)cccc2c1S`, the melting point is 197 to 199 °C. Consider `CC1(C)CCn2c(nc(-c3ccccn3)cc2=O)N1`, for which the melting point lay in the range of 345 to 347 °C. The result for `CC(C)(C)c1ccc(-c2ccc(F)cc2)n1CC[C@H]1C[C@H](O)CC(=O)O1` (relative stereo) reads 177 to 178 °C.

Turning to `N#CC1OC12CCN(C(=O)c1ccc(F)c(Cl)c1)CC2` (stereo not given), the melting point is 100 to 101 °C. The figure for `COc1cc2ncnc(Nc3ccc(OCc4ccccn4)c(C)c3)c2cc1OCCN(C)C` is 125 to 126 °C; for `C#CCOC(=O)c1cc(-n2c(=O)c3c(n(C)c2=O)CCC3)c(F)cc1Cl` it is 193 to 195 °C. As to `CCOC(=O)C1C(=O)CC(C)(O)C(C(=O)OCC)C1c1cc(C)c2oc(C)c(C)c2c1` (stereo not given), the melting point was 168 to 171 °C. The result for `O=C(Cn1c(=O)n(S(=O)(=O)c2ccc(Cl)cc2)c(=O)c2ccc(Cl)cc21)Nc1ccccc1` reads 217 to 218 °C; that for `CC(=O)N1N=C(c2ccc([N+](=O)[O-])c(C)c2)c2cc3c(cc2CC1(C)C#N)OCO3` (stereo not given), 253 to 255 °C. The result for `Cc1c(C(=O)Nc2ccc(OCC(C)(C)C)c(C#N)c2)cnn1C(C)(C)C` reads 143 to 144 °C; that for `CCn1c(=O)[nH]c2cc3c(N4CCN(C(=O)Nc5ccc(Oc6ccccc6)cc5)CC4)ncnc3cc21`, 248 to 251 °C. In the case of `COc1ccc(C(NCC(c2ccccc2)c2ccccc2)c2cccc(Nc3c(N)c(=O)c3=O)c2)cc1` (stereo not given), the melting point lay in the range of 193 to 194 °C. For the molecule `COc1cc2c3c(nc4ccc(Cl)cc4c3c1)-c1ccccc1N2`, the melting point is 205 to 207 °C. The result for `CCOC(=O)C(=O)Nc1cc(Cl)ccc1[N+](=O)[O-]` reads 103 to 104 °C. In the case of `CCOC(=O)c1ncn2c1c(Cl)nc1ccccc12`, the melting point is 128 to 130 °C. `CCOC(=O)Nc1ccccc1C(=O)OCC` gave a melting point of less than 40 °C. For the molecule `COc1cc(OC)c2cnc(-c3cc(C)c(OCCO)c(C)c3)nc2c1`, the melting point lay within 169 to 170 °C.

`Nc1ccccc1CC1NCCc2ccccc21` (stereo not given) returned a melting point of 69 to 71 °C. In turn, `CC(C)(C)OC(=O)N[C@@H](Cc1cncn1COCc1ccccc1)C(=O)O` returned a melting point of 155 to 157 °C. In the case of `Cc1nccc2c3ccc(OCCC(C)C)cc3n(CCC(C)C)c12`, the melting point was 106 °C. In turn, `COC(=O)c1cncc(N(C)C(=O)C(C)CSC(C)=O)c1` (stereo not given) displayed a melting point of 123 to 125 °C. The figure for `OCc1ccc(OCc2ccccc2)c(F)c1` is 56 to 57 °C; for `O=C(Nc1ccc(-n2nc(C(F)(F)F)cc2C(F)(F)F)cc1)c1cccc(Cl)c1` it is 142 to 144 °C; for `CN1CCC(c2nn(CO)c3ccccc23)CC1` it is 128 to 130 °C.

`C=CCS(=O)(=O)c1ccc(N2CC=C(c3ccc(Cl)c(Cl)c3)N2)cc1` registered a melting point of 198 °C.

For the molecule `O=C(O)c1cccc(CC2COc3cc(O)ccc3C2=O)c1` (stereo not given), the melting point was in the range of 234 to 236 °C. The molecule `Cc1ccc(S(=O)(=O)N2CCSC2=C(c2cccc(C)c2C)C(N)c2cccc(C)c2)cc1` (stereo not given) gave a melting point of 141 to 144 °C. The molecule `CC(C)(C)NC(=O)Nc1nc2nc(N)ncc2cc1-c1ccncc1` had a melting point of more than 350 °C. Molecule `O=[N+]([O-])c1cnc(Cl)nc1NCCO` gave a melting point of 123 to 125 °C.

As for `O=C(NCCCO)c1ccc[nH]1`, the melting point fell in the range of 71 to 73 °C.

Consider `O=C(/C=C/c1ccc2ccccc2c1)Nc1ccccc1-c1nnn[nH]1`, for which the melting point was in the range of 187 to 191 °C. The molecule `CCC1(CCSC(C)=O)C(=O)N2CCCC(C(=O)O)N2C1=O` (stereo not given) registered a melting point of 110 to 111 °C. As to `OCCCc1nc2cccnc2[nH]1`, the melting point was in the range of 151 to 153 °C. `Cc1nn2c(C(F)(F)F)cc(-c3ccc(F)c(Cl)c3)nc2c1C#N`: the melting point amounted to 196 °C. In turn, `O=C(O)C(F)c1cccc(OCc2ccccc2Cl)c1OCc1ccccc1Cl` (stereo not given) returned a melting point of 92 to 94 °C.

In turn, `O=C(O)[C@H](Cc1ccc(C(F)(F)F)cc1)[C@@H](O)c1cccc(F)c1` (racemic) displayed a melting point of 128 to 129 °C. `COc1ccc(CN2C(=O)CN(Cc3cccc(I)c3)S2(=O)=O)cc1` showed a melting point of 98 to 100 °C.

For the molecule `O=C(CC1(O)CCC1)N[C@H]1CC[C@H](CCN2CCN(c3nccc4c3CCO4)CC2)CC1`, the melting point worked out at 155 °C.

Take `CC(C)c1nn2ccccc2c1Br`: the melting point was in the range of 51 to 52 °C. Molecule `CCOC(=O)Cc1ccc(NC(=O)C(COc2ccc(Cl)cc2)NS(=O)(=O)c2ccc(I)cc2)cc1` (racemic) displayed a melting point of 162 to 163 °C. Molecule `COc1cc(OC)c2c(=O)[nH]c(-c3ccc(OCCN(C(=O)OC(C)(C)C)C(C)C)c(-c4ccc(S(C)=O)cc4)n3)nc2c1` (stereo not given) registered a melting point of 114 to 116 °C. In the case of `C[C@H](Nc1ncnc2[nH]cnc12)c1oc2ccc(Br)cc2c(=O)c1-c1ccccc1`, the melting point was 151 to 154 °C. `CCCCCCc1cccc(N2CC(=O)NC(=O)N2)c1` displayed a melting point of 95 to 99 °C. Take `CC1CC(N)(C(=O)O)c2cc(F)ccc2O1` (mixture of isomers): the melting point lay in the range of 153 to 156 °C. `CCCN(CCC)CC1CCCCN1CCNC(=O)N1c2ccccc2NC(=O)c2c1ccn2C` (stereo not given): the melting point fell in the range of 153 to 155 °C.

In the case of `Nc1nc(N)c2ncn(OCCCCP(=O)(O)O)c2n1`, the melting point is 295 to 297 °C. `CNS(=O)(=O)c1ccccc1Nc1nc(Nc2ccc3c(c2)COC[C@@H]2CCCN32)ncc1Cl`: the melting point was 187 to 188 °C. The result for `CC1(C)CC(O)CC(C)(C)N1CC(O)CN1C(C)(C)CC(O)CC1(C)C` reads 186 to 190 °C. In turn, `c1cc(-c2cnco2)nc(-c2cnco2)c1` displayed a melting point of 190 to 191 °C.

With `CCOC(=O)C1=C(C)NC(COCCn2ccnc2)=C(C(=O)OCC)C1c1ccccc1Cl` (stereo not given), the melting point was in the range of 163 to 165 °C. Take `CCCCCCCCCCCCCCCCOc1cc(NS(=O)(=O)c2cc([N+](=O)[O-])ccc2OCCOC)c(O)cc1C`: the melting point fell in the range of 85.5 to 86 °C. The result for `CC(C)(F)C1COCc2nc3c(N)nc4cc(O)ccc4c3n21` (stereo not given) reads 219 to 221 °C; that for `COC(=O)CCC(=O)c1cc2c(=O)c3ccccc3ccc2s1`, 144 to 145 °C.

Molecule `COc1ccc(Cl)cc1C(=O)NCC1CCOc2cc(OC)c(S(N)(=O)=O)cc21` (stereo not given) returned a melting point of 202 °C. The molecule `N#Cc1cnn(-c2c(Cl)cc(C(F)(F)F)cc2Cl)c1C=CC(=O)NS(=O)(=O)Cc1ccccc1` returned a melting point of 178 to 183 °C. Take `COC(=O)C1=C(CCc2ccccc2OC)NC(CC(=O)N2CCN(CC(=O)NC(C)C)CC2)=C(C(=O)OC)C1c1c(Cl)cccc1Cl` (stereo not given): the melting point is 161 to 163 °C. The molecule `O=C(O)c1ccccc1C(=O)OCC1CN(C(=O)Oc2ccccc2)CCC1c1ccc(F)cc1` (stereo not given) came in with a melting point of 149 to 151 °C.

In turn, `O=C(OCC1CCCCO1)c1ccccc1Nc1ccnc2cc(Cl)ccc12` (stereo not given) registered a melting point of 93 to 94 °C. The molecule `O=C(Nc1ccnnc1)Nc1cc(F)cc(F)c1` returned a melting point of 272 to 273 °C. In the case of `CCOCc1cc(OC)c(-c2ccc(C[C@H](NC(=O)c3c(Cl)cccc3Cl)C(=O)O)cc2)c(OC)c1`, the melting point was 196 to 198 °C. The molecule `COc1ccc(C2=NN(C(C)(C)C)C(=O)[C@H]3CCCC[C@@H]23)cc1OC` (relative stereo) had a melting point of 99 to 101 °C. `CCOc1ccc(-c2nc(-c3ccc(OC(C)=O)c(C(=O)O)c3)cs2)cc1OCC`: the melting point was in the range of 178 to 179 °C.

`N#CCN1CCC(Nc2nc3ccccc3n2Cc2ccc(CO)o2)CC1` gave a melting point of 210 °C. The molecule `CCOC(=O)Cn1c2c(c3c(Cl)c(Cl)ccc31)CCN(C(=O)OC(C)(C)C)CC2` gave a melting point of 136 to 138 °C. With `Cc1nc(N)ncc1-c1ccncc1`, the melting point fell in the range of 215 to 217 °C.

Consider `CN(CCSc1ccc([N+](=O)[O-])cc1)CCc1ccc([N+](=O)[O-])cc1`, for which the melting point is 56 to 57 °C. For the molecule `CN(C)N=Nc1ccsc1C(N)=O`, the melting point was 168 to 170 °C. With `O=C(O)c1ccc(Sc2ccccc2)cc1`, the melting point lay within 101 to 103 °C.

`CCC(COC)Nc1c([N+](=O)[O-])cc(C)c(C)c1[N+](=O)[O-]` (single isomer, unassigned; (-)) came in with a melting point of 42.5 to 44 °C. In turn, `Cc1nn(C)c(C(N)=O)c1Cl` had a melting point of 101 °C. For the molecule `O=C1c2ccccc2C(=O)N1CCOCCl`, the melting point is 69 to 72 °C. Regarding `O=C(CN1CCN(c2nccs2)CC1)N1CCC(O)(c2cccc(C(F)(F)F)c2)CC1`, the melting point lay within 157 to 158 °C. Molecule `Nc1cc(Cl)c(Cl)cc1C(=O)O` came in with a melting point of 196 to 203 °C. In the case of `COc1cc([N+](=O)[O-])c2nccc(C)c2c1OCCCCCc1ccccc1`, the melting point is 47 to 50 °C. The molecule `CS(=O)(=O)c1ccc(-c2nn(Cc3ccc(F)cc3F)c(=O)cc2-c2ccc(Cl)cc2)cc1` returned a melting point of 174 °C. Molecule `Cc1sc2c(Br)c3ccccc3c(-c3ccc(OS(=O)(=O)c4ccc(C(=O)O)c(O)c4)c(C(C)C)c3)c2c1C` displayed a melting point of more than 225 °C.
